According to ChEMBL document CHEMBL1201862, “PubChem BioAssay data set” (2004):
Active and inactive are the calls of the source.

Key:
[1] = target: Beta-2 adrenergic receptor (Homo sapiens, UniProt P07550); assay: beta2AR agonists driving receptor internalization, dose response, cell-based, FAP fluorogen, flow cytometry, cherry pick 1 (AID 588763); assay type: functional
[2] = Luminescence Cell-Based/Microorganism Confirmation at Dose of Inhibitors of Trypanosoma cruzi Infection. [Related pubchem assays: 1885, 1968 ]; assay type: functional
[3] = inhibitors of intracellular T. cruzi replication, confirmation, NIH3T3 host cells, beta-gal luminescence (AID 2044); assay type: functional, cell-based;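 further: intracellular parasites grown in NIH/3T3 mouse fibroblasts as host cells; luminescent beta-galactosidase reporter signal from transgenic T. cruzi replicating inside host cells; inhibitors lower the luminescence signal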
[4] = Luminescence Cell-Based Secondary HTS screen to identify cytotoxic compounds of NIH3T3 cells. [Related pubchem assays: 1885, 1968 ]; assay type: functional
[5] = cytotoxicity toward NIH3T3 fibroblasts, dose response, counter-screen, cell-based, ATP luminescence, mouse fibroblasts (AID 2010); assay type: functional;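 further: cells exposed to compound for about 90 hours before reading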
[6] = inhibitors of Trypanosoma cruzi host-cell infection, confirmation, beta-gal luminescence, NIH3T3 host cells (AID 2630); assay type: functional, cell-based; details: Mus musculus
[7] = target: Dual specificity protein kinase CLK1 (Homo sapiens, UniProt P49759); assay: CLK1 kinase inhibitors, off-target check, dose response, selectivity assay for Dyrk1A inhibitor project, biochemical, cherry-picked samples (AID 588811)
Chain of Dual specificity protein kinase CLK1 (P49759 whole entry): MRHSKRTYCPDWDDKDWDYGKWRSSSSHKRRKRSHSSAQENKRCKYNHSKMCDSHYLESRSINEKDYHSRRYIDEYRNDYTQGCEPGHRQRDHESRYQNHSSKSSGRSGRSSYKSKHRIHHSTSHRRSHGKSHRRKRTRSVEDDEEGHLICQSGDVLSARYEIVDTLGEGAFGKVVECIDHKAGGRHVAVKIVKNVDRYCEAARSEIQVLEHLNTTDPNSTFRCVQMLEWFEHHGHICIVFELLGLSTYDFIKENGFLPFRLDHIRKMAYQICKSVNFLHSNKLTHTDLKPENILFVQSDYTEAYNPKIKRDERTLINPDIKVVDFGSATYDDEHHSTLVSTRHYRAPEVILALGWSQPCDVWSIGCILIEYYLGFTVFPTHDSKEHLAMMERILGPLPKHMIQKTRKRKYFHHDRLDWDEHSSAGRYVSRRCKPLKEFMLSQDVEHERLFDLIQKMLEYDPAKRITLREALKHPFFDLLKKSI

[8] = target: Dual specificity tyrosine-phosphorylation-regulated kinase 1A (Rattus norvegicus, UniProt Q63470); assay type: biochemical, Homo sapiens
[9] = target: T1, Tyrosine-protein phosphatase non-receptor type 7 (Homo sapiens, UniProt P35236); assay type: functional
T1 sequence (P35236 whole entry): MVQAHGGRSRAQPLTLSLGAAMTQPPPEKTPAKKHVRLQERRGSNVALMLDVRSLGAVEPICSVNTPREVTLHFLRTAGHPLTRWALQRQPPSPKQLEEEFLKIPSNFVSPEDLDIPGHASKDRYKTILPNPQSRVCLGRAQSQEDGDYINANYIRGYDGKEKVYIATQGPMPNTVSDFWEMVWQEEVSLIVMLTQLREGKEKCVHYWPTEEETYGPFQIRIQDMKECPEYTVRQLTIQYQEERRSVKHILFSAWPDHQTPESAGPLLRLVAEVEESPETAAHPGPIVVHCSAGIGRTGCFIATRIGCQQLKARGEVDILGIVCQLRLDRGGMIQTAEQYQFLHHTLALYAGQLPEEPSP

[10] = target: Glyceraldehyde-3-phosphate dehydrogenase (Homo sapiens, UniProt P04406)
Chain of Glyceraldehyde-3-phosphate dehydrogenase (P04406 whole entry): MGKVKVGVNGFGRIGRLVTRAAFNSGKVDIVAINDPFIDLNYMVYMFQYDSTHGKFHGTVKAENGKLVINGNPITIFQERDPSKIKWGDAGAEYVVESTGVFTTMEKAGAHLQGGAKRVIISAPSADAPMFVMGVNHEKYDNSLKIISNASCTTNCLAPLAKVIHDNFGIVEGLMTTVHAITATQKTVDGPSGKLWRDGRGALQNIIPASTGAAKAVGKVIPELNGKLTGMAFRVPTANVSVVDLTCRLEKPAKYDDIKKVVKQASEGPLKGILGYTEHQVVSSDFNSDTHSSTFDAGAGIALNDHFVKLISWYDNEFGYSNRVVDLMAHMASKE

[11] = target: T2, Dual specificity protein phosphatase 6 (Rattus norvegicus, UniProt Q64346)
T2 sequence (Q64346 whole entry): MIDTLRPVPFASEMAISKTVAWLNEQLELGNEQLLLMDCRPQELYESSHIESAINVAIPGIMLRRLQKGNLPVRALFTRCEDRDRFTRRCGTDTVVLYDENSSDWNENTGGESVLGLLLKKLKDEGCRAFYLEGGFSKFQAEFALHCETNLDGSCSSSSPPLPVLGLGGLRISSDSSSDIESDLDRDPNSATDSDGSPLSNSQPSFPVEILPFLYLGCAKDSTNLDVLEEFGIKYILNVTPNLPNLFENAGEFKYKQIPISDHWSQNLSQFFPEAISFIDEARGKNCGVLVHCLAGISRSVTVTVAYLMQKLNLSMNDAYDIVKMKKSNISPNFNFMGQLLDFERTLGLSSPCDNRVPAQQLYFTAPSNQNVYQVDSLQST

[12] = target: T2, Dual specificity protein phosphatase 6; assay type: functional
HEK293 [13] = assay: inhibitors of LMP1-driven NF-kB reporter, dose response, cell-based, HEK293, luciferase, cherry-pick (AID 588343); assay type: functional; details: Homo sapiens
[14] = Shn3 3'UTR reporter inhibitors, dose response, cell-based, Clone20 osteoblasts, firefly luciferase, cherry-picked (AID 624132); assay type: functional;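 further: firefly luciferase luminescence from reporter carrying the Shn3 3'UTR in osteoblasts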
[15] = HepG2 cell cytotoxicity, dose response, cytotoxicity control for Shn3 inhibitor project, CellTiter-Glo, cherry-picked (AID 624134); assay type: functional, cell-based
[16] = control 3'UTR Renilla luciferase suppression, dose response, counter-screen for Shn3 inhibitor project, cell-based, Clone20-Shn3RL, cherry-picked (AID 624133); assay type: functional
[17] = target: T3, Heat shock factor protein 1 (Mus musculus, UniProt P38532); assay: HSF1 potentiators in luciferase reporter cells, confirmation, cell-based, NIH3T3, luminescence, dose retest (AID 435004); assay type: functional;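 further: stress induced by proteasome inhibitor MG132 added 30 min after compound; luciferase reporter driven by HSF1 response element in NIH3T3 cells; actives raise luminescence as potentiators of the MG132 stress response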
T3 sequence (P38532 whole entry): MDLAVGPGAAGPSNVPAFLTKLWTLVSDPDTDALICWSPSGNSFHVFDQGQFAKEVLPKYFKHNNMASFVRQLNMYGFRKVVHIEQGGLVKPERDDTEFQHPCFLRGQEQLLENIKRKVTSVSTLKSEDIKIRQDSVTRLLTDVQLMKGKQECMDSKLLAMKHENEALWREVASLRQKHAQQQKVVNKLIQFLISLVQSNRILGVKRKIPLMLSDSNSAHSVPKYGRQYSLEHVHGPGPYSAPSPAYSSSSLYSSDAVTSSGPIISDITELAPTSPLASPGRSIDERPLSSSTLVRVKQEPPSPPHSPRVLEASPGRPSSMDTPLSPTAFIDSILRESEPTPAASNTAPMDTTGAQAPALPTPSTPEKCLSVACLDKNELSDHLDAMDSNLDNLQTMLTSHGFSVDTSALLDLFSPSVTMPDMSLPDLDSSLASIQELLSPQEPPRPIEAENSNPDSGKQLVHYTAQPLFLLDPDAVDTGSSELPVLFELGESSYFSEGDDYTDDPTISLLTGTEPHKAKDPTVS

Vero [18] = assay: cells; assay type: functional, cell-based; details: Chlorocebus sabaeus
Vero [19] = assay: cells; assay type: functional; details: Chlorocebus sabaeus
[20] = target: Nuclear receptor subfamily 5 group A member 2 (Homo sapiens, UniProt O00482); assay type: functional, cell-based;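 further: HEK293T cells transfected with LRH-1 and a StAR promoter luciferase reporter; potency for inhibitors that lower LRH-1 driven reporter light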
Chain of Nuclear receptor subfamily 5 group A member 2 (O00482 whole entry): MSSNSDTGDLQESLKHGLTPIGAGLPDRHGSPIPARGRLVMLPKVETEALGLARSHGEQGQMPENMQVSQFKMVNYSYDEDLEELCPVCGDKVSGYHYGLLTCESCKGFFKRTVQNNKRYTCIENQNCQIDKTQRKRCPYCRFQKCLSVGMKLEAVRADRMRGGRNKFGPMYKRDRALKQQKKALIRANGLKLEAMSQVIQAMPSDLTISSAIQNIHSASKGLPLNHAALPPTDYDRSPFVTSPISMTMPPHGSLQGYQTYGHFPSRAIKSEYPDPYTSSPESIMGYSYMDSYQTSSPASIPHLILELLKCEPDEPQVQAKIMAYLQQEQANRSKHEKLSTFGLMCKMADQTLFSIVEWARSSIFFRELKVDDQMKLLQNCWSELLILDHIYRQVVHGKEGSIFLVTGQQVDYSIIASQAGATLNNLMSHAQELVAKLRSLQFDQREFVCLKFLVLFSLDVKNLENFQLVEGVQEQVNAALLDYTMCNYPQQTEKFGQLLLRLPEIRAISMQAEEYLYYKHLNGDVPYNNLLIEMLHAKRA

Steroidogenic factor 1 = Steroidogenic factor 1 (Homo sapiens, UniProt Q13285); assay: Counterscreen for inverse agonists of the liver receptor homolog-1 (LRH-1; NR5A2): Luminescence-based cell-based high throughput dose response assay to identify inverse agonists of the Steroidogenic Factor 1 Nuclear Receptor (SF1; NR5A1).; assay type: functional
Chain of Steroidogenic factor 1 (Q13285 whole entry): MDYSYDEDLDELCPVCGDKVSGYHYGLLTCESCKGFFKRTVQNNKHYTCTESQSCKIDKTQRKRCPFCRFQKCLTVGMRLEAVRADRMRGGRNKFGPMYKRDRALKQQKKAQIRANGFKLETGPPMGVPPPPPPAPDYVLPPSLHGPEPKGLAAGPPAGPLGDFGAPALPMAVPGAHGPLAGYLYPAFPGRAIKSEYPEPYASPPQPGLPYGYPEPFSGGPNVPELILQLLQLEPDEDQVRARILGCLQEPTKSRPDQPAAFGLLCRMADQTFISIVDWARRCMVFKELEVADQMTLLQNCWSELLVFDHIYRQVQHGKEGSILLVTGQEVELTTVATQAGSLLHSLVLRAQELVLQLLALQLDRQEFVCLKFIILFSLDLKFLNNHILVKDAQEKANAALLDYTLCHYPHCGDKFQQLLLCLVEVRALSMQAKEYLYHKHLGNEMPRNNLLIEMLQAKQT

[21] = StAR promoter reporter inhibition counter-screen, dose response, counter-screen for LRH-1 inverse agonist project, cell-based, luminescence, luciferase reporter (AID 651969); assay type: functional
HEK293 [22] = assay: cells; assay type: functional, cell-based; details: Homo sapiens
[23] = target: Nuclear receptor subfamily 0 group B member 1 (Homo sapiens, UniProt P51843); assay: Luminescence-based cell-based high throughput dose response assay for inhibitors of the orphan nuclear receptor subfamily 0, group B, member 1 (DAX1; NR0B1). [Related pubchem assays (depositor defined):AID504766, AID504790]; assay type: functional
Chain of Nuclear receptor subfamily 0 group B member 1 (P51843 whole entry): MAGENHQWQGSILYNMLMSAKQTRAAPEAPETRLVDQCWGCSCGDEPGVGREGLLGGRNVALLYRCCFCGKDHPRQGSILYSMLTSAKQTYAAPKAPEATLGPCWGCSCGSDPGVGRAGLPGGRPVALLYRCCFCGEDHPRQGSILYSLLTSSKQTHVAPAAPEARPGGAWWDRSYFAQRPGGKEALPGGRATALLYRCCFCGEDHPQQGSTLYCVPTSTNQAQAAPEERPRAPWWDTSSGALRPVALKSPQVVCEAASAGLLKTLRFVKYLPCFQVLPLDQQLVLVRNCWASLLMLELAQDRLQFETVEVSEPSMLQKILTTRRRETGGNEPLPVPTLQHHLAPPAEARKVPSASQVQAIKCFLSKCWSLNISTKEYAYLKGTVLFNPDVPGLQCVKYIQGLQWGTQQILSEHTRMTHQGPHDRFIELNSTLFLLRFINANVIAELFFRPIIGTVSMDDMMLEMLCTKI

[24] = blockers of SFLLRN-triggered platelet ATP secretion – cell-based, human platelets, luminescence, dry powder, dose response (AID 493100); assay type: functional
[25] = Luminescence Cell-Based Dose Response Follow up to Identify Inhibitors of Platelet Dense Granule Release. [Related pubchem assays (depositor defined):AID1663, AID1678, AID1889, AID2519]; assay type: functional
Candida albicans [26] = assay: growth inhibition of resistant C. albicans, dose response, CaCi-8 strain, fluconazole, dry powder, set 4 (AID 488950); assay type: functional, organism-based
Candida albicans [27] = assay: fluconazole resistance reversal in C. albicans, dose response, CaCi-2 strain, Alamar Blue, dry powder, set 4 (AID 488943); assay type: functional, organism-based
Candida albicans [28] = assay: growth inhibition of resistant C. albicans, dose response, CaCi-8, fluconazole, Alamar Blue, dry powder (AID 488807); assay type: functional, organism-based
Candida albicans [29] = assay: reversal of fluconazole resistance in C. albicans, dose response, CaCi-2 strain, Alamar Blue, dry powder, set 3 (AID 488907); assay type: functional, organism-based
Candida albicans [30] = assay: Candida albicans growth inhibition, agent alone, dose response, counter-screen for reversing antifungal drug resistance, CaCi-2 strain, no fluconazole, dry powder, set 4 (AID 488932); assay type: functional, organism-based
[31] = NIH-3T3 fibroblast cytotoxicity, dose response, cytotoxicity control, cell-based, fluorescence, Alamar Blue, secondary assay (AID 2327); assay type: functional;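 further: NIH-3T3 mouse fibroblasts cultured with fluconazole at 8 µg/mL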
[32] = inhibitors of firefly luciferase expression or activity, dose response, H4 neuroglioma cells, luminescence (AID 1990); assay type: functional, cell-based
[33] = Luminescence Cell-Based Dose Response HTS to Identify Inhibitors of 5'UTR Stem-Loop Driven Prion Protein mRNA Translation in H4 Neuroglioblastoma Cells. [Related pubchem assays: 1827 (Project Summary), 1813 (Primary HTS)]; assay type: functional
[34] = inhibitors of SNCA 5'UTR-driven reporter translation, confirmation, H4 neuroglioma cells, luminescence (AID 1988); assay type: functional, cell-based
[35] = C. albicans growth with fluconazole, confirmation, fluorescence, retest (AID 2467); assay type: functional, cell-based
[36] = target: Serine/threonine-protein phosphatase (Candida dubliniensis (strain CD36 / CBS 7987 / NCPF 3949 / NRRLY-17841) (Yeast), UniProt B9W6M3); assay: calcineurin pathway inhibitors in yeast reporter, dose response, S. cerevisiae, CDRE-lacZ, luminescence, secondary (AID 2388); assay type: functional, cell-based;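 further: yeast reporter cells carrying a calcineurin-responsive lacZ construct stimulated with calcium chloride; luminescent beta-galactosidase reporter signal in whole cells rather than isolated phosphatase activity; potency for inhibition where a drop in reporter signal means calcineurin blockade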
Chain of Serine/threonine-protein phosphatase (B9W6M3 whole entry): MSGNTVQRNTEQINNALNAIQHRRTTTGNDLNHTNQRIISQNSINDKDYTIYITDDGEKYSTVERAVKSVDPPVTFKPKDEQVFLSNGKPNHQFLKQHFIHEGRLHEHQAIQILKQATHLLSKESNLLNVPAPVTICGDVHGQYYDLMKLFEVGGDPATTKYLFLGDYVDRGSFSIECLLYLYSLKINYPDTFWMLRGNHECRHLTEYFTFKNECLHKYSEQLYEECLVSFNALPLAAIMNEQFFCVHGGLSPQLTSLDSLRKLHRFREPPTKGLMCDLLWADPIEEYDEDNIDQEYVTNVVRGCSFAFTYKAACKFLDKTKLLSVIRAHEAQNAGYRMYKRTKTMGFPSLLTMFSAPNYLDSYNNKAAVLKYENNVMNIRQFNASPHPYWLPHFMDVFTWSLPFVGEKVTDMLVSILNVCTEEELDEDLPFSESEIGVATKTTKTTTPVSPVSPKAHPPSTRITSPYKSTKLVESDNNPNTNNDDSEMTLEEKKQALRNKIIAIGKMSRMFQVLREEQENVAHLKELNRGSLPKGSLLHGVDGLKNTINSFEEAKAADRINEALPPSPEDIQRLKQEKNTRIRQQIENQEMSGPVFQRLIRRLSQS

INS1 = assay: beta cell apoptosis inhibitors, cytokine rescue, dose response, luminescence, retest (AID 449756); assay type: functional, cell-based; details: Rattus norvegicus;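 further: cell death triggered by IL-1 beta plus TNF-alpha plus IFN-gamma mixture; protective hits raise ATP signal compared with cytokine alone wells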
[37] = target: ATP-dependent molecular chaperone HSP82 (Candida albicans (strain WO-1) (Yeast), UniProt C4YTQ8); assay: loss of DOC-induced GRE-beta-galactosidase reporter signal, dose response, Hsp90 inhibitor project, S. cerevisiae, luminescence (AID 2400); assay type: functional, cell-based;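 further: beta-galactosidase luminescence from glucocorticoid response element reporter as proxy for Hsp90 function; inhibitor potency where signal loss means Hsp90 inhibition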
Chain of ATP-dependent molecular chaperone HSP82 (C4YTQ8 whole entry): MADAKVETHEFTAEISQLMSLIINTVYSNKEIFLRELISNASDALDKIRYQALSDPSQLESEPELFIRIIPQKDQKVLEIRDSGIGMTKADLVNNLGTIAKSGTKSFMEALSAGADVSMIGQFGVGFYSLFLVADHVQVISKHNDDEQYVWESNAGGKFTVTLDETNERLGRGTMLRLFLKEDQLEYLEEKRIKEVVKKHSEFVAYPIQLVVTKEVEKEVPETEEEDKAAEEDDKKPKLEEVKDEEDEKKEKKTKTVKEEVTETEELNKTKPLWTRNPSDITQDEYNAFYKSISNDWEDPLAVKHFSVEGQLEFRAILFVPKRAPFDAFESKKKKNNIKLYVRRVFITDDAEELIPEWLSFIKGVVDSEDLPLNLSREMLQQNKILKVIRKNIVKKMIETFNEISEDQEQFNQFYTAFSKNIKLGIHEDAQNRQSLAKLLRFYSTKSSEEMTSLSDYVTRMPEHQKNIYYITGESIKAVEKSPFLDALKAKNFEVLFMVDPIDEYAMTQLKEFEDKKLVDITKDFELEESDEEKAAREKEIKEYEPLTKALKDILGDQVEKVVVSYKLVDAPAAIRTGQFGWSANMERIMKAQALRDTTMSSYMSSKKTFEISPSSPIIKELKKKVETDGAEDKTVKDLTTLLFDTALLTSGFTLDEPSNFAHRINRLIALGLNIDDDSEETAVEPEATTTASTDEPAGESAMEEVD

[38] = target: Dual specificity protein phosphatase 3 (Homo sapiens, UniProt P51452); assay: SAR VHR1 Fluorescent Assay for In Vitro dose response studies Set 3. [Related pubchem assays (depositor defined):AID1654, AID1661, AID1878]; assay type: functional
Chain of Dual specificity protein phosphatase 3 (P51452 whole entry): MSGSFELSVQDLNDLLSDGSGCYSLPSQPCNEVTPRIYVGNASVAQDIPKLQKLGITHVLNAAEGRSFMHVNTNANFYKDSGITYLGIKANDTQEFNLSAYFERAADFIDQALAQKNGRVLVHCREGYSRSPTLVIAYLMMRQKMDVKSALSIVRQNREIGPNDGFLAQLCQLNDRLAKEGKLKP

Chain of Beta-2 adrenergic receptor (P07550 whole entry): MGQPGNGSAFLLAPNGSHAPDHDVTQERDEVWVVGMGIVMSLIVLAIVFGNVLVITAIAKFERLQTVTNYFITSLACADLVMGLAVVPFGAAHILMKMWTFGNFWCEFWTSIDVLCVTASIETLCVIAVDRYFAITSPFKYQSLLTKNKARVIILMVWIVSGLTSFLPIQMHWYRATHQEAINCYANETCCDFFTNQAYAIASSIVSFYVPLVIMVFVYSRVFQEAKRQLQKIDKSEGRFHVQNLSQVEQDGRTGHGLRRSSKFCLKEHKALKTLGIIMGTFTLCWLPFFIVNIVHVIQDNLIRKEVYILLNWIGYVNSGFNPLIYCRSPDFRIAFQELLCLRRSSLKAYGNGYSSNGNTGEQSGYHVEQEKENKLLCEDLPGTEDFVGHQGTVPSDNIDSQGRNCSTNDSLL

## Cc1ccc(N(C)S(=O)(=O)c2cc(-c3cnc(C4CC4)o3)ccc2C)cc1
[1]
  EC50: 2.46 µM (active)

## CC(C)=CCCC(C)CN(C)CCc1ccccn1 (stereo not drawn)
[2]
  EC50: 0.027 µM (active)
[3]
  EC50: < 0.1 µM (active)
[4]
  EC50: > 195 µM (not active)
[5]
  EC50: > 60 µM (not active)
[6]
  EC50: 0.027 µM (active)
cells
  EC50: 0.083 µM (active)

## CC(=O)Nc1ccc(Nc2cc(C)nc3c(-c4ccccc4)cnn23)cc1
[7]
  AC50: 15.3 µM (active)
[8]
  AC50: 5.54 µM (active)

## CCCCCCCCCCCCCCCCCCC#CCCCCCCCCCCC(=O)O
[9]
  IC50: 15.2 µM (active)
[10]
  IC50: > 100 µM (not active)
[11]
  IC50: > 100 µM (inactive)
[12]
  IC50: > 100 µM (inactive)

## Cc1ccccc1C(=O)NC(=S)Nc1ccc(N2CCN(C(=O)c3ccccc3)CC2)cc1
HEK293 [13]
  AC50: 1.7 µM (active)
[14]
  AC50: 1.88 µM (active)
[15]
  AC50: 51.5 µM (active)
[16]
  AC50: 7.72 µM (active)

## O=C(Nc1ccc(Br)cn1)c1ccc([N+](=O)[O-])o1
[17]
  EC50: 16.7 µM (active)
Vero [18]
  IC50: > 25 µM (active)
Vero [19]
  CC50: 13.8 µM (active)
[20]
  IC50: 35.9 µM (inactive)
Steroidogenic factor 1
  IC50: 35.9 µM (inactive)
[21]
  IC50: 35.9 µM (inactive)

## CCCCNC(=O)Nc1nc2ccccc2s1
HEK293 [22]
  IC50: > 67.5 µM (inactive)
[23]
  IC50: > 67.5 µM (inactive)

## C/C(=N/NC(=O)C1CCCC1)c1ccc(NC(=O)C(F)(F)F)cc1
[24]
  AC50: 12.3 µM (active)
[25]
  EC50: 0.802 µM (active)

## O=C(c1ccccc1)N1CCN(c2ccnc3cc(Cl)ccc23)CC1
Candida albicans [26]
  AC50: 2.05 µM (active)
Candida albicans [27]
  AC50: 1.69 µM (active)
Candida albicans [28]
  AC50: 5.68 µM (active)

## Cn1ccnc1N1CCN(C(=O)c2ccc(Cl)cc2)CC1
Candida albicans [26]
  AC50: 224 µM (active)
Candida albicans [27]
  AC50: 8.2 µM (active)
Candida albicans [29]
  AC50: 0.587 µM (active)
Candida albicans [30]
  AC50: > 260 µM (inactive)

## C/C(=N\NC(=O)c1cc(C2CC2)nc2ccccc12)c1ccc(O)cc1O
[31]
  EC50: 12.9 µM (inconclusive)
[32]
  EC50: 11.7 µM (active)
[33]
  EC50: 11.4 µM (active)
[34]
  EC50: 5.57 µM (inconclusive)
[35]
  EC50: 2.46 µM (active)
[36]
  EC50: > 180 µM (inactive)
INS1
  AC50: 1.01 µM (active)
[37]
  EC50: > 160 µM (inactive)

## COc1ccc(C(=O)Nc2nc3c(OC)cccc3s2)cc1
[38]
  IC50: 41.9 µM (active)
